# Source: patent publication US20020156301A1, “Triphenylmethane derivatives and use thereof” (Sumitomo Chemical Co., Ltd., priority 1997, published 2002)
# Marks after values point to notes of the source that are not given here.
# Columns and labels:
# [1] = test system: Rat osteoblastic cell line UMR 106; assay: Effects on osteoblast: ALP activity and TGFβ amount; assay type: cell-based; settings: two days, corrected for protein; for ALP activity, relative value considering the value for control as 1: UMR 106 cells; for TGFβ, relative value considering the value for control as 1: UMR 106 medium supernatant
# Procedure: Rat osteoblastic cell line UMR 106 was subcultured in Eagle's MEM medium containing 10% fetal bovine serum (active charcoal-treated), inoculated in 6-well plates (φ 36 mm well) at a density of 20,000 cells/well, and cultured overnight in 2 ml/well of the same serum-containing Eagle's MEM medium at 37° C. in the presence of 5% CO2. On the following day, the medium was aspirated, and the wells were washed by adding 1 ml/well of serum-free Eagle's MEM medium supplemented with Supplement A (a solution of insulin, transferrin, and selenium; Gibco BRL). After aspirating the washings, 2 ml/well of serum-free Eagle's MEM medium supplemented with Supplement A was newly added, and the cultivation was further continued at 37° C. Two days after the medium exchange, the medium was aspirated from each well. Into the wells, 2 ml/well of serum-free Eagle's MEM medium containing Supplement A to which a solution of a test compound in DMSO (or DMSO alone) had been added and mixed was then added, and the cultivation was further continued at 37° C. Two days after the addition of compound, the medium was collected, centrifuged (14,000 rpm, 5 minutes), and the supernatant was aliquoted. To each 0.6 ml aliquot, 20 μl of 1N HCl was added, mixed and then they were stored with ice-cooling. On the other hand, the wells from which the medium had been removed were washed twice with PBS (−). After thoroughly removing the residual liquid, 0.5 ml/well of extra pure water was added, and the cells were harvested, and stored at −80° C. The ice-cold medium supernatant described above was neutralized with 1N NaOH, and 100 μl aliquot thereof was sampled, and used in quantifying TGFβ using an ELISA kit for TGFβ (Biochemical Research Institute, Morinaga Milk Industry Co. Ltd.). On the other hand, the frozen cells were thawed by bringing them to room temperature. The cell suspension thus obtained by thawing the frozen cells was then centrifuged (14,000 rpm, 5 minutes), and 50 μl of the supernatant was used in measurement of alkaline phosphatase (ALP) activity. ALP activity was measured according to the method of Lowry [J. Biol. Chem. vol. 207, 19-37 (1954)]. The samples remained without being used for measurements of TGFβ and ALP activity were used in quantification of protein according to the method of Lowry [J. Biol. Chem. vol. 193, 265-275 (1951)].
# The relative values for the amount of TGFβ and the ALP activity after correcting for the amounts of protein are shown in Table 2.
# [2] = test system: α- and β-isoforms of human estrogen receptor; assay: Antiestrogenic activity: ERE-luciferase reporter in HeLa cells transfected with hERα or hERβ, with 17β-estradiol; assay type: cell-based; settings: relative luminescence for β-isoform divided by that for α-isoform, 17β-estradiol 100 pM (α), 1 nM (β)
# Text: cDNA fragments for α- and β-isoforms of human estrogen receptor were cloned from a human liver cDNA library (Toyobo Co, Ltd.) by RT-PCR using oligonucleotides having the following base sequences as primers. For cloning the a-isoform, oligonucleotides 5′-[…]-3′ and 5′-[…]-3′ were used, while oligonucleotides 5′-[…]-3′ and 5′-[…]-3′ were used for cloning the β-isoform. The CDNA fragments for the α- and β-isoforms obtained by the RT-PCR procedures were blunt-ended, and each inserted into a vector for expression pRc/RSV (Invitrogen) at its blunt-ended Hind III cleavage site to obtain expression plasmids pRc-RSV-hERα and pRc-RSV-hERβ. In addition, an oligonucleotide 5′-[…]-3′ comprising an estrogen response element was inserted into a vector pGV-P (Toyo Ink Mfg. Co., Ltd.) at the Sma I cleavage site to obtain a luciferase reporter plasmid pGV-ERE.
# Separately, HeLa cells which had been subcultured in Eagle's MEM medium containing 10% (v/v) phenol red-free and active charcoal-treated serum were inoculated in 24-well plates (φ16 mm well) at a density of 40,000 cells/well, cultured for 24 hours at 37° C. in the presence of 5% CO2, and then the medium was exchanged with serum-free Eagle's MEM medium.
# The above expression plasmid pRc-RSV-hERα or pRc-RSV-hERβ, and the luciferase reporter plasmid pGV-ERE incorporating the estrogen response element were transfected into the above HeLa cells using the lipofectin method. Specifically, 0.3 μg of the expression plasmid pRc-RSV-hERα or pRc-RSV-hERβ, 0.1 μg of pGV-ERE, and 0.35 μl of Lipofectin mixed together, and added to the above HeLa cells. The HeLa cells were then cultured for 6 hours at 37° C. in the presence of 5% CO2. Next, the medium was exchanged with Eagle's MEM medium containing 10% serum (active charcoal-treated), and the cultivation was continued overnight at 37° C. under 5% CO2. Furthermore, the medium was exchanged with Eagle's MEM medium containing 10% serum (active charcoal-treated) which had been further supplemented with a solution of a test compound in DMSO (or DMSO alone) and 17β-estradiol (final concentration: 100 pM for the α-isoform, and 1 nM for the β-isoform), and the cells were cultured for 48 hours. After removing the medium and washing the cells twice with PBS(−), 50 μl/well of a lysis solution was added, and the cells were lysed at room temperature. An aliquot of this cell lysate was mixed with a luciferase assay substrate solution (Toyo Ink Mfg. Co., Ltd.), and the luminescence was measured using a luminometer. For each of α- and β-isoforms of estrogen receptor, the relative value of luminescence obtained in each experiment in which 17β-estradiol and a solution of one of test compounds in DMSO were added was then calculated, considering the luminescence obtained when 17β-estradiol and DMSO were added as 100. Next, the antiestrogenic activity (β/α) was calculated by dividing the relative value thus obtained for the β-isoform by that for the α-isoform.
# [3] = test system: ovariectomized rats; assay: Effects on ovariectomized rat: bone mineral density of tibial epiphysis; assay type: in vivo; settings: 17 administrations, average for 5-8 animals, OVX control 79.9
# Text: Six-weeks old female SD rats (Charles River Japan) were subjected to ovariectomy of right and left ovaries, after one-week pre-feeding. Firstly, the hairs around the both flanks of the rats were shaved away. After anesthetizing the rat with diethyl ether, the area around the flanks was disinfected, and incised about 1 cm below the last ribs. The ovaries and uterus were extracted along with fats through the incision, and the ovaries were excised after ligating between ovaries and uterus with suture. The uterus and fats were then returned into the abdomens, and the incision was sutured. For rats receiving mock operations, ovaries were extracted as described above, and then returned into the abdomens as they were without ligature and excision. The rats which received such operations were divided into groups of four animals, and each group was housed in a polypropylene cage, and fed with chow (CRF-1; Charles River Japan) and water ad libitum.
# A compound was weighed out into a mortar, and the crystals were finely ground with a pestle. To the ground compound, 1% hydroxypropyl cellulose (HPC, 150-400 cP) was then added in small amounts while rubbing for suspending and mixing the compound to prepare an administration liquid having a given concentration of the compound. Such liquids for administration were newly prepared every week.
# The weights of ovariectomized rats described above were measured at an interval of one week, and the doses of the above liquid for administration were determined based on the weights. The same doses were used for one week until the next weight measurement. Administration to rats was started at one week after the ovariectomy, and the above liquids for administration were orally administered 17 times in total to groups of 5-8 animals through a 2 ml volume syringe attached with a metal sonde and once a day at a frequency of 5 times a week. […] The bone mineral density of the tibial epiphysis proximal to the knee was measured by an area scanning method.
Molecule,"ALP activity, relative value considering the value for control as 1 ([1]; compound 0.1 μM)","TGFβ, relative value considering the value for control as 1 ([1]; compound 0.1 μM)","ALP activity, relative value considering the value for control as 1 ([1]; compound 1 μM)","TGFβ, relative value considering the value for control as 1 ([1]; compound 1 μM)",Antiestrogenic activity (β/α) ([2]; compound 0.1 μM),Antiestrogenic activity (β/α) ([2]; compound 1 μM),Antiestrogenic activity (β/α) ([2]; compound 10 μM),Bone mineral density ([3]; 50 mg/kg-weight/day oral),Bone mineral density ([3]; 0.1 mg/kg-weight/day oral)
"Cc1cc(C(c2ccc(OCCN(C)C)cc2)c2cc(C)c(O)cc2C)c(C)cc1O [Compound 1, bis(2,5-dimethyl-4-hydroxyphenyl)[4-(2-dimethylamino-1-ethoxy)phenyl]methane]",2.0,1.4,5.4,1.1,5.2,8.6,3.0,88.0* mg/cm^2,–
"Cc1cc(C(c2cccc(OCCN(C)C)c2)c2cc(C)c(O)cc2C)c(C)cc1O [Compound 2, bis(2,5-dimethyl-4-hydroxyphenyl)[3-(2-dimethylamino-1-ethoxy)phenyl]methane]",1.5,–,–,–,19,5.5,2.3,91.2* mg/cm^2,–
Cc1cc(C(c2cccc(OCCN(C)C)c2)c2cc(C)c(O)c(C)c2C)c(C)c(C)c1O [Compound 3],–,–,–,–,2.6,4.0,2.0,–,–
Cc1cc(C(c2ccc(OCCN(C)C)cc2)c2cc(C)c(O)c(C)c2)cc(C)c1O [Compound 4],–,–,–,–,1.5,14,5.0,–,–
Cc1cc(C(c2cccc(OCCN(C)C)c2)c2cc(C)c(O)c(C)c2)cc(C)c1O [Compound 5],–,–,–,–,–,8.4,5.0,–,–
"C#C[C@]1(O)CC[C@H]2[C@@H]3CCc4cc(O)ccc4[C@H]3CC[C@@]21C [ethinyl estradiol, reference compound]",–,–,–,–,–,–,–,–,88.6* mg/cm^2
Hydroxytamoxifen [reference compound],–,–,–,–,1.3,1.9,1.5,–,–
